{"source": "patent US20140287074A1", "about": "“Extracts of deschampsia antartica with antineoplastic activity” (Uxmal S.A., Chile, priority 2013, published 2014)", "test_system": "LoVo colorectal cancer cells", "assay": "In vitro growth (proliferation, viability) of LoVo colon cancer cells", "format": "cell-based, human", "protocol": "FIG. 4. Effects of fractions of Deschampsia antarctica in concentrations of 100 μg/ml on in vitro growth of colon cancer cells (HT29 and LoVo), hepatic cancer cells (Hep3B) and control cells (wi38). GCB1, GCB2 and GCB3 correspond to extraction of three different collections of Deschampsia antarctica plants for the Antarctic. The extracts were prepared with water, then dried and dissolved in methanol. Control contains no extract added and the methanol control is a control containing 5% methanol as was used to dissolve the dried aqueous extract.\nFIG. 5. Effects of ethyl acetate (a and B) and methanol (c and d) extracts at to concentration of 75 ug/ml on LoVo colorectal cancer cells (a and c) and we38 human fetal fibroblast cells (b and d).\nIts effect on WI38 (normal lung fibroblasts) was tested at the maximum concentration to determine specificity and toxicity.\nThe same extract was tested in WI 38 cells (normal lung fibroblasts).", "data": [{"smiles": "O=c1cc(-c2ccc(O)c(O)c2)oc2c([C@@H]3OC(CO)[C@@H](O)[C@H](O)C3O[C@H]3OC[C@H](O)[C@@H](O)C3O)c(O)cc(O)c12", "note": "(single isomer, unassigned; peak 2) [peak 2, orientin 2″-beta-arabinopyranoside]", "values": [{"measurement": "concentration at which inhibitory effect on cellular proliferation was observed", "setting": "corresponds to 1.7 mM", "result": 1000, "unit": "µg/mL"}, {"measurement": "concentration at which inhibitory effect on cellular proliferation was observed", "setting": "tested at 0.017, 0.17 and 1.7 mM, FIG. 6", "result": 1.7, "unit": "mM"}]}]}
